Experiment [1] concerns the target Protein S100-A4 (Homo sapiens, UniProt P26447). The experiment is described as follows: human S100A4 peptide interaction inhibition curves – biochemical, fluorescence polarization, cherry-picked hits, dose response (AID 687001). The experiment is classed as functional. (Polarisation of emitted light reports the rotation of a fluorescent probe.)
The subject of experiment [2] is HeLa. The experiment is described as follows: viability loss in HeLa cells – cell-based, ATP luminescence, cherry-pick samples, cytotoxicity control, dose response (AID 687004). The experiment is classed as functional. As to conditions: Homo sapiens.
In experiment [3] the target is T1, Coagulation factor XII (Homo sapiens, UniProt P00748).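 Also: activated factor XIIa alpha cleaving a fluorogenic AMC peptide substrate; inhibitor potency from loss of enzyme activity.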
T1 sequence (P00748 whole entry): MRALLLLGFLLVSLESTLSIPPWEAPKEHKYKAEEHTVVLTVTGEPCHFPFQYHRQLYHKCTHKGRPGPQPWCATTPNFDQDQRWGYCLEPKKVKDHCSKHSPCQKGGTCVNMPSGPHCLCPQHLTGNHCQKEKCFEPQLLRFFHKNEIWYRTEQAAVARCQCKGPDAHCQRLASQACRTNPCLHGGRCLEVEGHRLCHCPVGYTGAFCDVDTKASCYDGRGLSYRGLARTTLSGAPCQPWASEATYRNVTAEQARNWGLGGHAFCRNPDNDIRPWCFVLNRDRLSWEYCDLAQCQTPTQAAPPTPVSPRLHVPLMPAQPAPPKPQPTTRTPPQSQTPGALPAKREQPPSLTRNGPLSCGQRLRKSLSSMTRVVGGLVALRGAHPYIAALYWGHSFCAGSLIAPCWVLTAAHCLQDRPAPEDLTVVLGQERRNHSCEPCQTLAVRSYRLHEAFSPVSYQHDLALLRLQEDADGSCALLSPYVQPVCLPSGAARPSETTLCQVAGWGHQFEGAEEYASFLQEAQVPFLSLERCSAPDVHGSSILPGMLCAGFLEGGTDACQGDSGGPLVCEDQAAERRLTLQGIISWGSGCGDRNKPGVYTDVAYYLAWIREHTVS
The experiment is classed as functional.

Experiment [4] in a line: cells. The experiment is classed as functional, cell-based.
Experiment [5] relates to A-375. Nature of the experiment: MITF: Counter assay: A375 proliferation Measured in Cell-Based System Using Plate Reader - 2084-03_Inhibitor_Dose_DryPowder_Activity. [Related pubchem assays (depositor defined):AID488944]. The experiment is classed as functional. The following applies: Homo sapiens.
Experiment [6] is described as follows: cells. The experiment is classed as functional, cell-based. This is another data set of the same source.
The test system of experiment [7] is A-375. Nature of the experiment: proliferation inhibition in MITF-low A375 cells – cell-based, cherry-pick samples, set 2, counter-screen for MITF modulator project, dose response (AID 540335). The experiment is classed as functional. The following applies: Homo sapiens. For orientation: A counterscreen serves to expose hits that act by an unwanted route or on another target.

The target in experiment [8] is Fructose-bisphosphate aldolase (Mycobacterium tuberculosis, UniProt P9WQA3). Nature of the experiment: Fluorescence-based biochemical high throughput dose response assay for inhibitors of the fructose-bisphosphate aldolase (FBA) of M. tuberculosis. The experiment is classed as functional.
Fructose-bisphosphate aldolase, sequence (P9WQA3 whole entry): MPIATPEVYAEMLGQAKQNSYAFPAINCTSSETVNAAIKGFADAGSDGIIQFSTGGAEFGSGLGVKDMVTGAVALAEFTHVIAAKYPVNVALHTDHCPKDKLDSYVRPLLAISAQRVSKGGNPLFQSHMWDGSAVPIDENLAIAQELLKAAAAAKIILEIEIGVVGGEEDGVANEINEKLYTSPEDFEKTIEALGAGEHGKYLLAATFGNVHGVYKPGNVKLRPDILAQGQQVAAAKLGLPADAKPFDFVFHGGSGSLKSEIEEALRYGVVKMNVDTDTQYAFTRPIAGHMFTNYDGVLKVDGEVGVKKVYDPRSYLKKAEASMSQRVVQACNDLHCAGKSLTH
Experiment [9] in a line: anti-trypanosomal activity in BESM host cells – imaging, CA-I/72 strain, bovine embryo skeletal muscle, dry powder, dose response (AID 651885). The experiment is classed as functional, cell-based.
The target of experiment [10] is T2, Sentrin-specific protease 8 (Homo sapiens, UniProt Q96LD8).
T2 sequence (Q96LD8 whole entry): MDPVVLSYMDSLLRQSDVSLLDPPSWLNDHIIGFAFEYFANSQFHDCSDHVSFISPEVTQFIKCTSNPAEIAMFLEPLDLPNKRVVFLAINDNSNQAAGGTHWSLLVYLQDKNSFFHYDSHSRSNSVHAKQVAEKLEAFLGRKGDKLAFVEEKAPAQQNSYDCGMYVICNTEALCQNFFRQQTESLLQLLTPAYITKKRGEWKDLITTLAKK
The experiment is classed as functional.

Experiment [11] concerns the target T3, Caspase-3 (Homo sapiens, UniProt P42574).
T3 sequence (P42574 whole entry): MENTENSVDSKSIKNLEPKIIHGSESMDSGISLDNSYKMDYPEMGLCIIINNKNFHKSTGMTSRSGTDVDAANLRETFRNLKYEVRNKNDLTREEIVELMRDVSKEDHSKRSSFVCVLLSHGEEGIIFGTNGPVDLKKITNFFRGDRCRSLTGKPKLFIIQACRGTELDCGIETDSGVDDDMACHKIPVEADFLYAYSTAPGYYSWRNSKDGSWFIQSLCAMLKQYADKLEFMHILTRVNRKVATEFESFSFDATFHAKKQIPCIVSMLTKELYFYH
The experiment is described as follows: Dose-response confirmation of uHTS inhibitor hits of Sentrin-Specific Protease 8 in a Caspase-3 Fluorescence assay. The experiment is classed as functional.

Experiment [12] has as its system Vero. The experiment is described as follows: viability of Vero cells under compound – cytotoxicity control for flavivirus capping enzyme inhibitors (AID 588742). The experiment is classed as functional. As to conditions: Chlorocebus sabaeus.
For experiment [13], the target named is T4, Replicative DNA helicase DnaB (Mycobacterium tuberculosis, UniProt P9WMR3).
T4 sequence (P9WMR3 whole entry): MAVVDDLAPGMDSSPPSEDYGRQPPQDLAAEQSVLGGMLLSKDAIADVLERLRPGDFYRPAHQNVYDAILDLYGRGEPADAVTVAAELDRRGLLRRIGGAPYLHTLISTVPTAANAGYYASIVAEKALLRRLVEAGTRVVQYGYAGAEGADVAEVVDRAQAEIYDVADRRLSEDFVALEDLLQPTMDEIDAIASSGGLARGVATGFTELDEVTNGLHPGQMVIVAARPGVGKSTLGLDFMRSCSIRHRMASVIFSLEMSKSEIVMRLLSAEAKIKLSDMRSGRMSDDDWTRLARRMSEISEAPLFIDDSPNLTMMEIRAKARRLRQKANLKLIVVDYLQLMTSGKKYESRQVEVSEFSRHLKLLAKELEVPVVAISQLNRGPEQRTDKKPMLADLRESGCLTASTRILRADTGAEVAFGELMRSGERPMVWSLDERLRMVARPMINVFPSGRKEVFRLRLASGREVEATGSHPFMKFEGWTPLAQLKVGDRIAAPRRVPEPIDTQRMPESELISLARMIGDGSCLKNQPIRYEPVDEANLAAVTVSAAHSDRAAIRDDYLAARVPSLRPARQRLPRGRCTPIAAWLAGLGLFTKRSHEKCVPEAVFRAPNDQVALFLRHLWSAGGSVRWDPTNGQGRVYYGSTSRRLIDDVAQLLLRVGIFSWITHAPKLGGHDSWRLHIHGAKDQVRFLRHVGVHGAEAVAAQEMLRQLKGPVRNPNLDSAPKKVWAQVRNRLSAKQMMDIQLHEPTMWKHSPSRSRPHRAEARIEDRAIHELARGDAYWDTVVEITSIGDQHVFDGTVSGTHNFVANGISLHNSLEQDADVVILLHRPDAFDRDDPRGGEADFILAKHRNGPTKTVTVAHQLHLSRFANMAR
The experiment is described as follows: DnaB intein splicing inhibitors, dose response, biochemical, cell-free fluorescence (AID 449749). The experiment is classed as functional.

Experiment [14] addresses T5, Protein RecA (Mycobacterium tuberculosis, UniProt P9WHJ3).
T5 sequence (P9WHJ3 whole entry): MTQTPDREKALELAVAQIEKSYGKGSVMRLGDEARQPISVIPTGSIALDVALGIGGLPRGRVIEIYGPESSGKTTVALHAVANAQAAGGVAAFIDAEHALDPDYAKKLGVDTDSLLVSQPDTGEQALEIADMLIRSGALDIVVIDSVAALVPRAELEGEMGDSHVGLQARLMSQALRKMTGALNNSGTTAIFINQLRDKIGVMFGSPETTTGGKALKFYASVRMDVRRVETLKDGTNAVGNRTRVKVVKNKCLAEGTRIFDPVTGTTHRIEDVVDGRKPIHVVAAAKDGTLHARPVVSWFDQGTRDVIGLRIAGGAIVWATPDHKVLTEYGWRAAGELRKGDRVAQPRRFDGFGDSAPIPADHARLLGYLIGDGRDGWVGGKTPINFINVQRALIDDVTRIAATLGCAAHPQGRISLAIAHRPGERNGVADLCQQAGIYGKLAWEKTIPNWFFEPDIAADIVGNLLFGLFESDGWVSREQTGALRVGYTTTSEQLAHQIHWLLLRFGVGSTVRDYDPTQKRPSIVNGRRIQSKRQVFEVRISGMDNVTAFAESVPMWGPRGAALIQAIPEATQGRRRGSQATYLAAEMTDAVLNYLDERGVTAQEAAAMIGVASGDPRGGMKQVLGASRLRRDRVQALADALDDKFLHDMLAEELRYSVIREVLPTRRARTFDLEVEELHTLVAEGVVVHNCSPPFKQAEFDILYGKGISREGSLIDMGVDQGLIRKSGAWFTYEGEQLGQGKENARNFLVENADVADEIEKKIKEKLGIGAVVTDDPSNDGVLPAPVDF
The experiment is described as follows: Fluorescence Cell-Free Homogeneous Dose Retest to Identify Inhibitors of RecA-Intein Splicing Activity. [Related pubchem assays (depositor defined):AID2097, AID2223, AID489010, AID492950]. The experiment is classed as functional.

For experiment [15], the target named is T2, Sentrin-specific protease 8. The experiment is classed as functional. The source holds these as a separate data set.

The source of these data is ChEMBL document CHEMBL1201862, “PubChem BioAssay data set” (2004).

Structures are written as SMILES. The source made the active and inactive calls.

Protein S100-A4, sequence (P26447 whole entry): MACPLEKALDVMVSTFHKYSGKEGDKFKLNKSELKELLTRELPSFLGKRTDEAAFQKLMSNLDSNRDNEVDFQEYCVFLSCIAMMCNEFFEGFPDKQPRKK

As to `CN(C)c1ccc(C=Cc2nccc3ccccc23)cc1`, in [1], the AC50 – broadly, the concentration giving half of the maximal activity seen – was 0.774 µM (active).

In the case of `Cc1ccc(CSc2ncnc3c2cnn3-c2ccc(C)cc2)cc1`, the AC50 in [2] was 48.5 µM (active). Further, the IC50 – broadly, the concentration that gives 50% inhibition – in experiment [3] is > 50 µM (inactive).

For the compound `Cc1ccc(Nc2nnc(-c3ccccc3N)o2)cc1C`, the results for the EC50 in experiment [4] and in [6] were > 350 µM (not active) and 7.3 µM (active), respectively. Also, the AC50 in experiment [5] and in [7] was > 35 µM (active) each time. The IC50 in experiment [8] is 1.45 µM (active).

Consider `CNC[C@H]1Oc2c(NC(=O)c3ccccc3)cccc2C(=O)N(C(C)C)C[C@@H]1C`, for which the IC50 in [9] is > 20 µM (inactive).

Take `COc1ccc(/C=N/NC(=O)c2nn(-c3ccc(Cl)cc3)c(=O)c3c(N)scc23)cc1`: the IC50 in experiment [10] was 0.967 µM (active); in [11], 11.9 µM (active); in experiment [15], 2.03 µM (active). Besides, the CC50 (in general, the concentration that lowers cell viability or growth by half) in experiment [12] was 22 µM (active). Also, in [13], the AC50 is > 380 µM (inactive). The EC50 (usually the midpoint of the concentration-response curve) in [14] was 4.62 µM (active).
